This note sets out measurements from patent US11084829B2, “Ubiquitin-specific-processing protease 7 (USP7) modulators and uses thereof” (RAPT THERAPEUTICS, INC., priority 2018, dated 2021).

Data set [1] concerns MYCN. Kind of data set: Western blot of MYCN in H526 cells. It is filed as cell-based. The settings on record: after 2, 8 or 24 hours of treatment. The procedure: (§1) For Western blotting, compound-treated cells were lysed in RIPA lysis buffer (ThermoScientific) containing Halt Protease and Phosphatase Inhibitor Cocktail (Life Technologies). Lysates were quantified using the BCA protein assay (Pierce) and equivalent protein was separated by SDS-PAGE (4-12%, ThermoScientific). Following electrophoresis, proteins were transferred to PVDF membranes. […] Caspase activation assays were performed on compound-treated cells using the Caspase-Glo 3/7 Assay Kit (Promega) according to the manufacturer's protocol, and luminescence was measured using a CLARIOstar plate reader (BMG LABTECH). […] Data were collected using FACSCanto (Becton Dickinson) and Attune (Thermo Fisher Scientific) flow cytometers and analyzed with FlowJo software (FlowJo LLC). […] Lysates were quantified using the BCA protein assay (Pierce) and equivalent protein was used in the PathScan Phospho-S6 Ribosomal Protein (Ser235/236) Sandwich ELISA Kit (Cell Signaling) according to the manufacturer's protocol. Absorbance was measured using the Spectramax 300 plate reader (Molecular Devices).
(§2) The effect of pharmacological inhibition of USP7 on the viability of the p53 mutant small cell lung cancer cell line, H526 was further evaluated. […]
Background: A western blot detects proteins with antibodies after separation by electrophoresis.

The test system of data set [2] is NB-1. Kind of data set: Cell viability (CellTiter-Glo), NB-1. The settings on record: Homo sapiens, NB1; NB-1, neuroblastoma, MYCN amplified, p53 wild-type. The format is cell-based. The procedure: (§3) CHP-134 was purchased from Sigma Aldrich, MOLM-13 was purchased from AddexBio, and NB-1 was purchased from Sekisui XenoTech. All other cell lines were purchased from American Type Culture Collection. For all cell lines, identity was confirmed by short tandem repeat profiling and culturing was performed in recommended growth medium. For studies evaluating cellular effects of compound treatment, 250 to 2,000 cells in 40 μl of recommended medium were seeded per well in 384-well plates (Corning 3764). DMSO-solubilized compounds were added in duplicate in a two-fold dilution series using a D300e Digital Dispenser (Hewlett-Packard). Following a 5-day incubation, cell viability was measured using CellTiter-Glo (Promega) following the manufacturer's instructions. Luminescence was measured using a CLARIOstar plate reader (BMG LABTECH) and normalized to that of DMSO-treated cells. IC50 values were determined by non-linear regression using a 4-parameter fit in Prism (GraphPad Software). Inhibitor profiling of the 430-cell line panel was conducted and analyzed similarly.
(§4) USP7 has been reported to stabilize MYCN (also referred to as MYCN proto-oncogene, a gene that is a member of the MYC family which is over-expressed in a variety of tumors). Since MYCN amplification is an established driver mutation in neuroblastoma, the effect of USP7 inhibition on a panel of p53 wild-type, MYCN- or MYC-amplified neuroblastoma cell lines was tested. The USP7 inhibitors of Examples 31 and 124 reduced viability of all three MYCN-amplified and two MYC-amplified neuroblastoma cell lines tested as shown in Table 4. Idasanutlin was used as a positive control, and as expected these cell lines were also sensitive to this compound.
(Cellular ATP, detected with luciferase, serves as a proxy for viable cell number.)

The test system of data set [3] is OCI-AML5. Kind of data set: Cell viability (CellTiter-Glo), OCI-AML5. The format is cell-based. The settings on record: Homo sapiens, OCI-AML-5, p53 wild-type. The procedure:
as §3
(§5) USP7 inhibition by the compounds of Examples 31 and 124 reduced the viability of several p53-wild type blood cancer cell lines, including M07e, OCI-AML5 and MOLM13, in vitro as shown in the following Table 3. Idasanutlin was used as a positive control, and as expected these cell lines were also sensitive to this compound.

In data set [4] the target is USP7 (Homo sapiens, UniProt Q93009). Put plainly: USP7 inhibitory potency (IC50). The format is biochemical. The procedure:
Activity for compounds described herein is provided in Table 2, wherein potency levels are provided as follows: (Potency: USP7 IC50: A<0.01 μM; B=0.01-0.1 μM; C=>0.1 μM.

The subject of data set [5] is H526. Put plainly: Cell viability (CellTiter-Glo), H526. It is filed as cell-based. The settings on record: Homo sapiens, NCI-H526. The procedure: as §3
(§6) In addition to the many p53 wild-type cell lines in the cell line panel that were sensitive to USP7 inhibition, a subset of p53 mutant cell lines that were inhibited by our USP7 inhibitors were identified and are shown in Table 5.
(§7) The effect of pharmacological inhibition of USP7 on the viability of the p53 mutant small cell lung cancer cell line, H526 was further evaluated. […] In contrast, idasanutlin, whose inhibitory effect is dependent on a functional p53 pathway, had no effect.

The test system of data set [6] is LA-N-2. Kind of data set: Cell viability (CellTiter-Glo), LA-N-2. The format is cell-based. The settings on record: LA-N-2, neuroblastoma, MYCN-amplified, p53-mutant. The protocol:
as §3, §6

In data set [7] the test system is M07e. Put plainly: Cell viability (CellTiter-Glo), M07e. The settings on record: M-07e, AML, p53 wild-type. It is filed as cell-based. The protocol: as §3, §5
The test system of data set [8] is SH-SY5Y. Put plainly: Cell viability (CellTiter-Glo), SH-SY5Y. The settings on record: Homo sapiens, neuroblastoma, MYC amplified, p53 wild-type. The format is cell-based. The procedure:
as §3, §4

For data set [9], the system named is MOLM13. Kind of data set: Cell viability (CellTiter-Glo), MOLM13. The settings on record: Homo sapiens, MOLM-13; MOLM13, AML, p53 wild-type. It is filed as cell-based. The protocol:
as §3, §5

Data set [10] deals with SK-N-DZ. Put plainly: Cell viability (CellTiter-Glo), SK-N-DZ. The format is cell-based. The settings on record: Homo sapiens, neuroblastoma, MYCN-amplified, p53-mutant. The procedure: as §3, §6
The test system of data set [11] is H526 xenograft. Put plainly: H526 xenograft model in athymic nude mice. The format is in vivo. The protocol:
(§8) MM. 1S and H526 xenograft studies were conducted according to the guidelines approved by the Applicant's Institutional Animal Care and Use Committee (IACUC). MM.1S cells were inoculated in PBS into irradiated NOD/SCID mice, while H526 cells were inoculated in PBS/Matrigel (Corning) into Nu/Nu mice (Jackson Laboratories). Mice were randomized into groups when mean tumor size reached 150 mm^3 (MM.1S) or 50-100 mm^3 (H526), respectively, and drug administration by oral gavage was started on day of randomization. Tumor volumes and body weights were subsequently measured twice per week. Tumor volumes were calculated using the formula: V=0.5(A×B^2), where A and B are the long and short diameters of the tumor, respectively.
as §7

The nature of data set [12]: Tolerability in tumor-free mice (preliminary to H526 study). The format is in vivo. The settings on record: preliminary testing, oral 50 mg/kg twice daily or 100 mg/kg daily.
The test system of data set [13] is p21. Kind of data set: Western blot of p21 in H526 cells. The format is cell-based. The settings on record: after 2, 8 or 24 hours of treatment. The procedure: as §1, §2
For data set [14], the system named is MM.1S. Kind of data set: Cell viability (CellTiter-Glo), MM.1S. The settings on record: Homo sapiens, MM1.S, p53 wild-type. It is filed as cell-based. The protocol: as §3, §5
For data set [15], the system named is CHP-134. Kind of data set: Cell viability (CellTiter-Glo), CHP-134. It is filed as cell-based. The settings on record: Homo sapiens; CHP-134, neuroblastoma, MYCN amplified, p53 wild-type. The protocol: as §3, §4
A short description of data set [16]: Tolerability in tumor-free NOD-SCID mice. It is filed as in vivo. The settings on record: daily oral 50 mg/kg and 100 mg/kg, preliminary experiments. The protocol:
(§9) The effects of USP7 inhibition were assessed in vivo in the MM.1S xenograft model in NOD-SCID mice via daily oral dosing of the USP7 inhibitor 3-((7-(5-chloro-2-(((2S,6S)-2,6-dimethylpiperazin-1-yl)methyl)-3-methylphenyl)thieno[3,2-b]pyridin-2-yl)methyl)-3-azabicyclo[3.1.0]hexane-2,4-dione (the compound of Example 31) at 50 mg/kg and 100 mg/kg. […] However, brief dosing holidays allowed the mice to recover and dosing to continue.

The test system of data set [17] is MOLP8. Kind of data set: Cell viability (CellTiter-Glo), MOLP8. The settings on record: Homo sapiens, MOLP-8; MOLP8, MM, p53 wild-type. The format is cell-based. The procedure: as §3, §5
Data set [18] deals with HCC1937. Put plainly: Cell viability (CellTiter-Glo), HCC1937. The format is cell-based. The settings on record: Homo sapiens; HCC1937, breast, triple-negative, BRCA1 mutant, p53-mutant. The protocol: as §3, §6
Data set [19] concerns MM.1S xenograft. Put plainly: MM.1S xenograft model in NOD-SCID mice. The format is in vivo. The protocol: as §8, §9
Data set [20] has as its system NCI-H929. Put plainly: Cell viability (CellTiter-Glo), NCI-H929. It is filed as cell-based. The settings on record: Homo sapiens; NCI-H929, MM, p53 wild-type. The procedure: as §3, §5
Data set [21] deals with EOL-1. Put plainly: Cell viability (CellTiter-Glo), EOL-1. The format is cell-based. The settings on record: Homo sapiens, EOL1; EOL-1, AML, p53 wild-type. The protocol: as §3, §5
Where [22] appears, read: H526, lung, small cell, p53-mutant, read-out: CC50.
Where [23] appears, read: H526, p53 mutant small cell lung cancer, CellTiter-Glo assay, read-out: CC50 (viability of H526 in vitro).
The mark [24] stands for this setting: H526 xenograft, athymic nude mice, twice-daily oral 50 mg/kg (FIG. 2) or daily oral 100 mg/kg (data not shown).

Like-named read-outs stand apart in the source and are kept apart here.

Chain of USP7 (Q93009 whole entry): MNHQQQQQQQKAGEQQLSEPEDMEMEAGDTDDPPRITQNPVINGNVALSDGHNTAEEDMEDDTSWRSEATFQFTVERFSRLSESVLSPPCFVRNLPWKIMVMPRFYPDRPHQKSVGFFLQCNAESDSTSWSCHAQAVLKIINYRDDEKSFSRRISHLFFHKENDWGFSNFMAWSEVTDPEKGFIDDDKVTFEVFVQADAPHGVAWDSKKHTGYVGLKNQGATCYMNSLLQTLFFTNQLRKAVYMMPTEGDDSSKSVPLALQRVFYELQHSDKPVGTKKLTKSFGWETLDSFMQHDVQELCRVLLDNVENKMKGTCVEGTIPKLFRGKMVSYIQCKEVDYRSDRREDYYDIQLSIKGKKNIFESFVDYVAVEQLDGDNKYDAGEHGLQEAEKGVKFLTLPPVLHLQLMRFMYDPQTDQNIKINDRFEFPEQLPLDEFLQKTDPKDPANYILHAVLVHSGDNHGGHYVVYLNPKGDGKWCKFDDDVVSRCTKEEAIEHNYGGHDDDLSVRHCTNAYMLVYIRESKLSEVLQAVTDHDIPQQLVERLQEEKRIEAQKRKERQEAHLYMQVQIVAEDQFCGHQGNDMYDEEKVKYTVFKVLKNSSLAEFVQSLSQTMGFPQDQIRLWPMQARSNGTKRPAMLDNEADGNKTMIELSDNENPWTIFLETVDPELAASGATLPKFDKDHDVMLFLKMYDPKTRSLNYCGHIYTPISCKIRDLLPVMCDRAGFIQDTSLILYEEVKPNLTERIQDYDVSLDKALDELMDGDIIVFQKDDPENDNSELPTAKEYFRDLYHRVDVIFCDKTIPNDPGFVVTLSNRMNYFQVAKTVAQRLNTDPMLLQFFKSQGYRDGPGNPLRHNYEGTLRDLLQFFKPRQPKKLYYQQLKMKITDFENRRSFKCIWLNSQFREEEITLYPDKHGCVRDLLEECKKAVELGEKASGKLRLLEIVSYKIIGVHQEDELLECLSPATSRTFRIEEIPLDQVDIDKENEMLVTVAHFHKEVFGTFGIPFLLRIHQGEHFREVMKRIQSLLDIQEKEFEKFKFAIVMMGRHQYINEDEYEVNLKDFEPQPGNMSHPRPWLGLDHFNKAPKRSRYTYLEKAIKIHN

As a reminder, the CC50 is the concentration that lowers cell viability or growth by half. As usually defined, the IC50 is the midpoint of a concentration-inhibition curve. Low values mean inhibition by little substance, high ones a need for much substance. With `Cc1cc(Cl)cc(-c2ccnc3cc(CN4C(=O)C5C(C4=O)C5(C)C)sc23)c1C[C@@H]1CNCCO1` (stereo partly drawn) [Example 124, 3-((7-(5-chloro-3-methyl-2-(((R)-morpholin-2-yl)methyl)phenyl)thieno[3,2-b]pyridin-2-yl)methyl)-6,6-dimethyl-3-azabicyclo[3.1.0]hexane-2,4-dione], in data set [1], the MYCN protein levels entry is listed as “did not reduce MYCN protein levels”. Besides, the CC50 in [2] was found to be 500 nM; in data set [3] it was 200 nM; in data set [5] (setting [22]) it was 500 nM; in data set [5] (setting [23]), 500 nM; in data set [6] it was 200 nM; in data set [7], 200 nM. Also, the CC50 in data set [8] is 1900 nM; in data set [9], 400 nM; in data set [10], 200 nM; in data set [14], 100 nM; in [15], 600 nM. This compound showed a 50% inhibitory concentration (IC50) in [4] of less than 10 nM. For the same compound, the survival entry in data set [11] (setting [24]) is given as “prolonged survival”. The tumor growth result in data set [11] (setting [24]) is on record as “inhibited tumor growth”. The tolerability result in [11] (tumor-bearing mice of the H526 study, oral 50 mg/kg twice daily or 100 mg/kg daily) is given as “well tolerated”; in [12] it was “well tolerated”. Besides, the p21 level entry in data set [13] is reported as “did not induce any change in p21 level”.
Take `Cc1cc(Cl)cc(-c2ccnc3cc(CN4C(=O)C5CC5C4=O)sc23)c1CN1[C@@H](C)CNC[C@@H]1C` (stereo partly drawn) [Example 31, 3-((7-(5-chloro-2-(((2S,6S)-2,6-dimethylpiperazin-1-yl)methyl)-3-methylphenyl)thieno[3,2-b]pyridin-2-yl)methyl)-3-azabicyclo[3.1.0]hexane-2,4-dione]: the CC50 in [2] worked out at 600 nM; in data set [3] it was 200 nM; in data set [5] (setting [22]), 500 nM; in data set [5] (setting [23]), 500 nM; in [6] it was 600 nM; in [17], 200 nM. Besides, the CC50 in data set [18] is 100 nM; in data set [7], 100 nM; in [8] it was 1800 nM; in data set [9] it was 100 nM; in data set [10] it was 200 nM; in [20], 400 nM. In addition, the CC50 in [14] came out at 100 nM; in data set [21], 40 nM; in [15], 500 nM. Moreover, in data set [4], the half-maximal inhibitory concentration (IC50) was less than 10 nM. Also, in data set [16], the tolerability entry is listed as “well tolerated”. Moreover, the tumor growth entry in [19] (MM.1S xenograft, NOD-SCID mice, daily oral dosing at 50 mg/kg and 100 mg/kg, FIG. 1A) was “effectively inhibited MM.1S tumor growth”. Further, the survival entry in data set [19] (MM.1S xenograft, NOD-SCID mice, daily oral dosing at 50 mg/kg and 100 mg/kg, FIG. 1B) was “prolonged survival in a dose-dependent manner”. The body weight entry in [19] (tumor-bearing NOD-SCID mice, longer-term xenograft study, daily oral 50 and 100 mg/kg, recovered with brief dosing holidays) is on record as “dose-dependent body weight loss in a fraction of mice”.
